Results published in patent US8420311B2, “Method to block the infection by flaviviruses, molecules and uses” (Centro de Ingenieria Genetica y Biotecnologia, priority 2006, dated 2013).
Bridges are numbered along the chain shown (N, C = ends). Where no end group is shown, it is not given here.

B1: non-activated A2M: non-activated variant of purified human A2M (protein)
chain: SVSGKPQYMVLVPSLLHTETTEKGCVLLSYLNETVTVSASLESVRGNRSLFTDLEAENDVLHCVAFAVPKSSSNEEVMFLTVQVKGPTQEFKKRTTVMVKNEDSLVFVQTDKSIYKPGQTVKFRVVSMDENFHPLNELIPLVYIQDPKGNRIAQWQSFQLEGGLKQFSFPLSSEPFQGSYKVVVQKKSGGRTEHPFTVEEFVLPKFEVQVTVPKIITILEEEMNVSVCGLYTYGKPVPGHVTVSICRKYSDASDCHGEDSQAFCEKFSGQLNSHGCFYQQVKTKVFQLKRKEYEMKLHTEAQIQEEGTVVELTGRQSSEITRTITKLSFVKVDSHFRQGIPFFGQVRLVDGKGVPIPNKVIFIRGNEANYYSNATTDEHGLVQFSINTTNVMGTSLTVRVNYKDRSPCYGYQWVSEEHEEAHHTAYLVFSPSKSFVHLEPMSHELPCGHTQTVQAHYILNGGTLLGLKKLSFYYLIMAKGGIVRTGTHGLLVKQEDMKGHFSISIPVKSDIAPVARLLIYAVLPTGDVIGDSAKYDVENCLANKVDLSFSPSQSLPASHAHLRVTAAPQSVCALRAVDQSVLLMKPDAELSASSVYNLLPEKDLTGFPGPLNDQDDEDCINRHNVYINGITYTPVSSTNEKDMYSFLEDMGLKAFTNSKIRKPKMCPQLQQYEMHGPEGLRVGFYESDVMGRGHARLVHVEEPHTETVRKYFPETWIWDLVVVNSAGVAEVGVTVPDTITEWKAGAFCLSEDAGLGISSTASLRAFQPFFVELTMPYSVIRGEAFTLKATVLNYLPKCIRVSVQLEASPAFLAVPVEKEQAPHCICANGRQTVSWAVTPKSLGNVNFTVSAEALESQELCGTEVPSVPEHGRKDTVIKPLLVEPEGLEKETTFNSLLCPSGGEVSEELSLKLPPNVVEESARASVSVLGDILGSAMQNTQNLLQMPYGCGEQNMVLFAPNIYVLDYLNETQQLTPEVKSKAIGYLNTGYQRQLNYKHYDGSYSTFGERYGRNQGNTWLTAFVLKTFAQARAYIFIDEAHITQALIWLSQRQKDNGCFRSSGSLLNNAIKGGVEDEVTLSAYITIALLEIPLTVTHPVVRNALFCLESAWKTAQEGDHGSHVYTKALLAYAFALAGNQDKRKEVLKSLNEEAVKKDNSVHWERPQKPKAPVGHFYEPQAPSAEVEMTSYVLLAYLTAQPAPTSEDLTSATNIVKWITKQQNAQGGFSSTQDTVVALHALSKYGAATFTRTGKAAQVTIQSSGTFSSKFQVDNNNRLLLQQVSLPELPGEYSMKVTGEGCVYLQTSLKYNILPEKEEFPFALGVQTLPQTCDEPKAHTSFQISLSVSYTGSRSASNMAIVDVKMVSGFIPLKPTVKMLERSNHVSRTEVSSNHVLIYLDKVSNQTLSLFFTVLQDVPVRDLKPAIVKVYDYYETDEFAIAEYNAPCSKDLGNA

Tests used:
DV1 = format: cell-based, dengue virus; settings: peptides 0.1 mg/ml; Vero cells
Procedure: (§1) FIG. 17. Inhibition of the infection of Vero cells with DV1 and DV2. (A) Six-well plates with a monolayer at approximately 90% confluence were incubated for 30 min. at 37° C. with dilutions of the peptides in MEM medium. A dilution of either DV1 strain West Pac 74 or DV2 strain S16803 was then added, calculated so as to obtain an average of 100 lytic plaques per well, and the plates were incubated for 30 min. at 37° C. with the virus/peptide mixture. After the incubation the cells were washed twice, received the addition of MEM medium supplemented with non-essential amino acids, 1% fetal calf serum, 1% CMC, and finally were incubated for 5 days at 37° C. under a CO2 atmosphere. (B) Inhibitory effect of the peptides at 100 μMol/L. NRpep: Non-related peptide. Data on the sequence of the peptides 3H5pept (SEQ ID. 27), pepDIII-1 (SEQ ID. 28), HIII2CL (SEQ ID. 5) and HIII3CL (SEQ ID. 7), as well as on the region they span on DIII from DV, can be obtained from FIG. 11. The calculation of the inhibition percentages is described in Materials and Methods. (C) Inhibition of DV2 infection by using varying peptide concentrations. The viral plaques were visualized by staining with Naphtol Blue Black. Cell control: Untreated cells. Virus control: Cells incubated with the virus, but without peptide.
(§2) DIII has one of the most variable regions of the exposed surface of protein E. In fact, one of the antigenic characteristics of this domain is that the antibodies obtained against this region are predominantly serotype-specific (Roehrig J T, Bolin R A, Kelly R G (1998) Monoclonal antibody mapping of the envelope glycoprotein of the dengue 2 virus, Jamaica Virology 246:317-28). However, during the inhibition assay with different DV serotypes, the peptides display a wide-spectrum inhibitory activity, efficiently inhibiting the infection of strains of the homologous, as well as of the heterologous serotypes (table 3). It is important to notice that at the assayed concentration (0.1 mg/ml) all the peptides in all the conditions, with the exception of peptide HIII4CL for DV3, produced higher than 50% inhibition levels.

DV2 = format: cell-based, dengue virus; settings: peptides 0.1 mg/ml; Vero cells
Procedure: as §1, §2

DV3 = format: cell-based, dengue virus; settings: peptides 0.1 mg/ml; Vero cells
Description: as §2

DV4 = format: cell-based, dengue virus; settings: peptides 0.1 mg/ml; Vero cells
Description: as §2

A2MR receptor = assay: Effect of peptides on the binding of fluoresceinated A2M and RAPR13 to Vero cells (flow cytometry); format: cell-based, monkey; settings: increasing peptide concentrations (FIG. 19)
Procedure: FIG. 19. Effect produced on the binding of A2M and RAPR13 to the surface of Vero cells by simultaneous incubation with the peptides. The fluoresceinated A2M and RAP13 proteins were incubated for 30 min. at 4° C. with pre-fixed Vero cells in the presence of varying concentrations of HIII2CL and 3H5pept in order to reach the indicated molar peptide/protein ratios. The binding of the labeled ligands was detected by flow cytometry.
In order to obtain a direct evidence of the interaction with the A2MR receptor, the effect of one of the designed peptides on the binding of the natural ligands of A2MR to Vero cells was investigated. The assay was performed with fluoresceinated A2M and RAPR13, measuring their binding to Vero cells in the presence of increasing concentrations of the HDIII2CL peptide. The amount of protein bound to the cells was estimated by flow cytometry, using recombinant human EGF (rhEGF) as a negative control for the experiment, since it is known that Vero cells express the EGF receptor in their surface (Copp J, Wiley S, Ward M W, van der Geer P (2005) Hypertonic shock inhibits growth factor receptor signaling, induces caspase-3 activation, and causes reversible fragmentation of the mitochondrial network. Am J Physiol Cell Physiol. 288:C403-15).

mAb 3H5 = assay: Recognition by mAb 3H5 in Western blotting / dot blotting; format: binding; settings: signal lost upon reduction and carbamidomethylation
Description: FIG. 12. (A) Sequence of the peptides designed to mimic different regions on the surface of DIII. The residue numbering corresponds to the sequence for protein E of DV serotype 2, strain Jamaica 1409, available from the Swiss-Prot databank with access number P07564. The underlined residues are not present in protein E and were introduced during design. The cysteine residues are used to restrict the structural mobility of the peptide by a disulphide bridge. (B) Recognition of the HDIII2Cs peptide by the neutralizing antibody 3H5 in a Western blotting assay. 50 μg of the BSA-peptide conjugates and 20 μg of the recombinant protein PD5 were electrophoresed on a 12.5% SDS-PAGE gel and transferred to a nitrocellulose membrane. After blocking, the membrane was incubated with a dilution (30 μg/mL) of the 3H5 mAb for 2 hours at 25° C. The bound antibody was detected with an anti-mouse IgG-peroxidase conjugate, and the blots were developed using chemiluminescence. (C) Two pieces of nitrocellulose membrane were sensitized in parallel with 10 μg of each variant of the protein and of the peptides. […]
With the aim of evaluating the recognition of peptide HDIII2Cs by mAb 3H5, peptide-BSA conjugates were prepared and analyzed by Western blotting with this antibody (FIG. 12B). […]

DV = assay: Inhibition of the infection of Vero cells with DV by pre-incubation of the virus with A2M; format: cell-based, dengue virus; settings: incubation times with virus longer than 30 minutes (FIG. 20B)
Procedure: FIG. 20. Inhibition of the infection of Vero cells with DV by pre-incubation with A2M. Viral preparations were incubated 1 h at 25° C. (A and C) or the indicated time (B) with the proteins i. e. activated A2M (A2Mact), non-activated A2M (A2M no act) and a non-related protein (NR). The mixtures of the proteins with the virus were added to monolayers of Vero cells and incubated for 1 h at 37° C. The cell monolayers were washed to eliminate non-bound virus. Next, medium MEM supplemented with non-essential amino acids and 1% FBS, 1% CMC was added and the cells were incubated for 5 days at 37° C. in a CO2 incubator. To visualize the viral plaques, Vero cells were stained using Naphtol Blue Black. All experimental points were performed on duplicates.
To obtain further evidences of the interaction of DV with A2M, the two variants of the protein i.e. activated and non-activated were used in assays of inhibition of infection of Vero cells. The viral preparation was incubated with solutions of activated A2M of higher concentrations than the physiological concentrations reached by this variant of the protein. Solutions of equimolar concentration of non-activated A2M and a non-related protein were used as negative controls. […]

Row | Molecule | degree of reduction of the number of viral plaques, DV1 (DV1) | degree of reduction of the number of viral plaques, DV2 (DV2) | degree of reduction of the number of viral plaques, DV3 (DV3) | degree of reduction of the number of viral plaques, DV4 (DV4) | amount of surface-bound RAPR13 (A2MR receptor) | recognition by mAb 3H5 (mAb 3H5) | increase of viral infection (DV) [%]
1 | 3H5pept: peptide reported in the literature as part of the epitope recognized by mAb 3H5, SEQ ID. 27 (KAQLKLNWFKKGSS) [Peptide 3H5pept, reference compound] | − (Less than 10% decrease in the number of plaques) | − (Less than 10% decrease in the number of plaques) | − (Less than 10% decrease in the number of plaques) | − (Less than 10% decrease in the number of plaques) | does not produce variations | – | –
2 | HDIII2Cs: cyclic peptide corresponding to Ile379-Lys388 from protein E of DV2, Seq. ID. 4 (CIIGVEPGQLKC-NH2; disulfide 1-12) | − (Less than 10% decrease in the number of plaques) | − (Less than 10% decrease in the number of plaques) | − (Less than 10% decrease in the number of plaques) | − (Less than 10% decrease in the number of plaques) | – | recognized by mAb 3H5 | –
3 | B1 | – | – | – | – | – | – | ≤ 50
